Literature values as cited in article PMC8398847, “Isavuconazole: Thermodynamic Evaluation of Processes Sublimation, Dissolution and Partition in Pharmaceutically Relevant Media” (Molecules, 2021).

Conditions: 298.15 K, cited from earlier work; for sublimation Gibbs energy (kJ∙mol-1, Table S2) / sublimation enthalpy (first kJ∙mol-1 column, Table S2): bicalutamide cluster; for sublimation Gibbs energy (Table S1) / sublimation enthalpy (Table S1): IVZ cluster, ref Table S1 [1]-[16]

Compound	sublimation Gibbs energy (kJ∙mol-1, Table S2)	sublimation enthalpy (first kJ∙mol-1 column, Table S2)	sublimation Gibbs energy (Table S1)	sublimation enthalpy (Table S1)
2-phenylcarbamoyl-3-methylquinoxaline-N-oxide	69.2 kJ/mol	145.1 kJ/mol		
CC(O)(c1ccccc1)c1ccccc1 [1,1-diphenylethanol]	39.1 kJ/mol	105 kJ/mol	9.35 kcal/mol	25.1 kcal/mol
Fc1ccc(-n2cccc2)cc1 [1-(4-fluorophenyl)pyrrole]	25.4 kJ/mol	78.9 kJ/mol		
CC(O)Cc1nsc(Nc2ccc(F)cc2)n1 (stereo not drawn) [1-[5-(4-Fluoro-phenylamino)-[1,2,4]thiadiazol-3-yl]-propan-2-ol]	59.1 kJ/mol	124.8 kJ/mol		
CC(C)(O)c1ccccc1 [1-methyl-1-phenylethanol]	22 kJ/mol	82.3 kJ/mol	5.26 kcal/mol	19.7 kcal/mol
CC(=O)Nc1ccccc1O [2'-Hydroxyacetanilide]	52.8 kJ/mol	121.8 kJ/mol		
Fc1ccccc1-c1ccccc1F [2,2'-difluorobiphenyl]	32.3 kJ/mol	95 kJ/mol	7.72 kcal/mol	22.7 kcal/mol
CC(=O)Nc1ccccc1C(=O)O [2-(acetylamino)-Benzoic acid]	54.4 kJ/mol	115.5 kJ/mol		
NC(=O)c1ccccc1F [2-Fluorobenzamide]	35.8 kJ/mol	95.4 kJ/mol		
N#Cc1ccc2ccccc2c1 [2-Naphthalenecarbonitrile]			8.08 kcal/mol	22 kcal/mol
O=C(O)c1ccccc1F [2-fluorobenzoic acid]	35.5 kJ/mol	94.4 kJ/mol	8.48 kcal/mol	22.6 kcal/mol
CC(=O)Nc1cccc(O)c1 [3-Acetamidophenol]	56.4 kJ/mol	111 kJ/mol		
NC(=O)c1cccc(F)c1 [3-Fluorobenzamide]	42.5 kJ/mol	104.1 kJ/mol		
N#Cc1cccc(F)c1 [3-Fluorobenzonitrile]			3.78 kcal/mol	15.6 kcal/mol
O=[N+]([O-])c1cccc(F)c1 [3-Fluoronitrobenzene]	17.1 kJ/mol	72.3 kJ/mol		
O=C(O)c1cccc(F)c1 [3-fluorobenzoic acid]	34.4 kJ/mol	93.6 kJ/mol	8.22 kcal/mol	22.4 kcal/mol
Cc1ccccc1NC(=O)c1c(C)[n+]([O-])c2ccccc2[n+]1[O-] [3-methyl-N-(2-methylphenyl)-2-quinoxalinecarboxamide-1,4-dioxide]	71.9 kJ/mol	154.8 kJ/mol		
CC(=O)Nc1ccc(Br)cc1 [4'-Bromoacetanilide]	51.2 kJ/mol	113.4 kJ/mol		
CC(=O)Nc1ccc(Cl)cc1 [4'-Chloroacetanilide]	50.1 kJ/mol	113.8 kJ/mol		
